Measurements taken from patent US9394268B2, “(E)-1-(5-methoxy-2,2-dimethyl-2H-chromen-8-yl)-3-(4-methoxyphenyl)prop-2-en-1-one and analogs thereof, as well as preparation method and use thereof” (Sichuan University, priority 2012, dated 2016).

Assays:
K562 = experiment: Cell proliferative assay (MTT), K562; format: cell-based; settings: Homo sapiens, 72 h incubation, read-out: IC50s K562
How it was run: (§1)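 Absorbance at 590 nm after MTT addition gives cell viability. Compounds at graded doses are incubated with the cells for 72 h, following a 24 h settling period after seeding.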

HT29 = experiment: Cell proliferative assay (MTT), HT29; format: cell-based; settings: Homo sapiens, HT-29, 72 h incubation, read-out: IC50s HT29
How it was run: as §1

A549 cells = experiment: Human lung cancer A549 xenograft; format: in vivo, Balbc mice; settings: 5, 10 and 20 mg/kg intravenous once three days for eight times; vs control P<0.01
Description: (3) In Vivo Anti-Tumor Activity of SKLBC-9 on Human Lung Cancer A549 Xenograft
Six-week-old female mice were obtained from Chinese Academy of Medical Science (Beijing, China). A549 cells (5×10^6 in 100 μl saline) were injected subcutaneously into the right flanks of Balbc mice. When the tumor reached about 100 mm^3, mice were selected and randomly divided into five groups including control, cisplatin (1.5 mg/kg) and SKLBC-9 (5,10,20 mg/kg). The animals were intravenous injection with SKLBC-9 (5, 10 and 20 mg/kg) or vehicle once three days for eight times. Tumor burden was measured every 2 or 3 days with a caliper (calculated volume [mm^3]=n/6× length×width×width). After treatment, mice were killed and tumors were collected and weighted.

HepG2 = experiment: Cell proliferative assay (MTT), HepG2; format: cell-based; settings: Homo sapiens, 72 h incubation, read-out: IC50s HepG2
How it was run: as §1

SPC-A1 cells = experiment: Human lung cancer SPC-A1 xenograft; format: in vivo, Balb/c nude mice; settings: 10, 20 mg/kg intravenous every three days for eight times; vs vehicle control
Description: (4) In Vivo Anti-Tumor Activity of SKLBC-9 on Human Lung Cancer SPC-A1 Xenograft
Six-week-old Balb/c nude mice were obtained from Chinese Academy of Medical Science (Beijing, China). SPC-A1 cells (5×10^6 in 100 μl saline) were injected subcutaneously into the right flanks of the mice. 14 days after cell injection, forty mice were selected and randomly divided into four groups including control, cisplatin (1.5 mg/kg) and SKLBC-9 (10, 20 mg/kg). The animals were intravenously injected with SKLBC-9 or vehicle every three days for eight times. Tumor burden and animal body weight was measured every 2 or 3 days. The survival rate was also recorded. After treatment, mice were killed and tumors were collected and weighted.

HCT116 = experiment: Cell proliferative assay (MTT), HCT116; format: cell-based; settings: Homo sapiens, HCT-116, 72 h incubation, read-out: IC50s HCT116
How it was run: as §1

SW620 = experiment: Cell proliferative assay (MTT), SW620; format: cell-based; settings: Homo sapiens, SW-620, 72 h incubation, read-out: IC50s SW620
How it was run: as §1

tumor cells = experiment: Cell proliferative assay (MTT), summary over tumor cells; format: cell-based; settings: summary in words of Table 1; colon, liver, leukemia lines
Description: The synthesized compounds were evaluated for their cytotoxin activity against suspended tumor cells. These cells were seeded on 96-well plates and incubated for 24 h. Selected compounds were added at various doses and incubated for 72 h, MTT was then added, and the absorbance was measured at a wavelength of 590 nm. IC50 values are expressed as the mean±SEM from the dose-response curves of at least three independent experiments.

- IC50 (K562): 3500 nM
- IC50 (HT29): 1870 nM
- IC50 (HepG2): 730 nM
- IC50 (HCT116): 1630 nM
- IC50 (SW620): 570 nM
Compound: COc1ccc(C(=O)/C=C/c2ccc(N(C)C)cc2)c2c1C=CC(C)(C)O2 [SKLBC-9, (E)-3-(4-(dimethylamino)phenyl)-1-(5-methoxy-2,2-dimethyl-2H-chromen-8-yl)prop-2-en-1-one]
- tumor growth (A549 cells): suppress tumor growth
- average tumor weight (SPC-A1 cells): significantly lower
- growth of tumor (SPC-A1 cells): significantly inhibited
- inhibitory activity against tumor cells (tumor cells): better inhibitory activity
